Converted amounts (≈) assume the structure as drawn. One block for each molecule: values may come before it.
Tests used:
[1] = Hygroscopicity of solid forms of compound of formula (IV) (Ph. Eur. classification); assay type: physicochemical
Procedure: For the thermogravimetric analyses, approx. 5 - 10 mg of sample were placed in aluminum pans, accurately weighed and hermetically closed with perforation lids. […] The samples were then heated under a flow of nitrogen of about 50 mL/min using a heating rate of 5 K/min. The term "micronization" denotes a process whereby the particle size of a solid material is diminished to a d50 value of less than IOµm by the aid of a suitable method, such as milling, bashing or grinding. […] The term "anti-solvent crystallization" denotes a process wherein supers aturation and as a result thereof crystallisation is achieved by addition of an antisolvent to the product solution. The term "ambient conditions" denotes conditions as experienced in a standard laboratory, e.g. atmospheric pressure, air, ambient temperature between 18 °C and 28 °C, humidity between 30 %rH and 80 %rH. The term "hygroscopicity" describes the ability of a solid material to adsorb moisture. The hygroscopicity of a given API is characterized [European Pharmacopoeia - 6th Edition (2008), Chapter 5.11) by the increase in mass when the relative humidity is raised from 0 %rH to 90 %rH: o non-hygroscopic: weight increase Am < 0.2%; o slightly hygroscopic: weight increase 0.2% < Am < 2.0%; o hygroscopic: weight increase 2.0% < Am < 15.0%; o very hygroscopic: weight increase Am > 15.0%; o deliquescent: sufficient water is adsorbed to form a liquid. The IUPAC lamda convention (W.H. Powell, Pure & Appl. Chem. […] The bonding number "n" of a heteroatom is the sum of the total number of valence bonds to adjacent atoms, if any, and the number of attached hydrogen atoms. The bonding number of a heteroatom is standard when it has the value given in the following table: n=4: C, Si, Ge, Sn, Pb; n=3 B, N, P, As, Sb, Bi, n=2: O, S, Se, Te, Po; n=l; F, CI, Br, I, At. A nonstandard bonding number of a (neutral) heteroatom is indicated by the symbol "λη", where "n" is the bonding number. […]

[2] = Solid form stability of forms of compound of formula (IV) (Temperature / Humidity Controlled XRPD, storage, suspension); assay type: physicochemical
Procedure: The term"XRPD" denotes the analytical method of X-Ray Powder Diffraction. XRPD patterns were recorded at ambient conditions in transmission geometry with a STOE STADI P diffractometer (Cu K alpha radiation source, primary monochromator, position sensitive detector, angular range 3° to 42° 2Theta, approximately 60 minutes total measurement time). The repeatability of the angular values is in the range of 2Theta ±0.2°. The term "approximately" given in combination with an angular value denotes the repeatability which is in the range of 2Theta ±0.2°. The samples were prepared and analyzed without further processing (e.g. grinding or sieving) of the substance. The relative XRPD peak intensity is dependent upon many factors such as structure factor, temperature factor, crystallinity, polarization factor, multiplicity, and Lorentz factor. Relative intensities may vary considerably from one measurement to another due to preferred orientation effects. Humidity Controlled XRPD analyses were performed in reflection geometry with a Siemens D5000 Diffractometer (Cu radiation source, Ni K beta filter, Scintillation detector, angular range 3° to 42° 2Theta, approximately 180 minutes total measurement time per humidity level). The diffractometer is equipped with an MRI (Materials Research Instruments) humidity chamber. The humidity within the chamber is adjusted with an ANSYCO humidity controller (SYCOS H-HOT). For single crystal structure analysis a single crystal sample was mounted in a nylon loop on a goniometer and measured at ambient conditions. Alternatively, the crystal was cooled in a nitrogen stream during measurement. Data were collected on a GEMINI R Ultra diffractometer from Oxford Diffraction. Cu-radiation of 1.54 A wavelength was used for data collection. Data was processed with the Oxford Diffraction CRYSALIS software. The crystal structure was solved and refined with standard crystallographic software. In this case the program ShelXTL from Bruker AXS (Karlsruhe) was used. The abbreviation "FWHM" denotes the full width at half maximum, which is a width of a peak (e.g. appearing in a spectrum, particularly in an XRPD pattern) at its half height. The term "sharp Bragg diffraction peak" in connection with X-ray diffraction patterns denotes a peak which is observed if Bragg' s law of diffraction is fulfilled. Generally, the FWHM of a sharp Bragg diffraction peak is less than 0.5° 2-theta. The term "amorphous halo" in connection with X-ray diffraction patterns denotes an approximately bell- shaped diffraction maximum in the X-ray powder diffraction pattern of an amorphous material. The FWHM of an amorphous halo is on principle larger than the FWHM of the peak of crystalline material. The terms "FTIR" and "IR" denote the analytical method of infrared spectroscopy. The IR-spectra of the samples are recorded as film of a Nujol suspension consisting of approx. 5 mg of sample and approx. 5 mg of Nujol (mineral oil) between two sodium chloride plates (cross section 13 mm) in transmittance with a FTIR- spectrometer. The spectra were recorded in spectral range between 4000 cm"1 and 600 cm"1, resolution 2 cm"1, and 300 coadded scans on a Magna 860 (thermo/Nicolet) equipped with a DTGS detector. The term "Raman" denotes the analytical method of Raman spectroscopy. For recording Raman spectra, the samples were spread on a glass slide. Raman spectra were recorded in the range of 150-3800 cm"1 with an ARAMIS (HoribaJobinYvon) Raman microscope equipped with a Peltier cooled CCD detector, at excitation of 633 nm, a 1200 1/mm grating, a x50 objective and with 3 exposures of 3s, or 7s for weak Raman scatterers. The term "DSC" denotes the analytical method of Differential Scanning Calorimetry. DSC thermograms were recorded using a Mettler-Toledo™ differential scanning calorimeter DSC820, DSC821 or DSC1 with a FRS05 sensor. […]

physchem = assay: physchem
Procedure: Anal. Chem. Instrum. […] Drug Delivery Rev. […] The binding constant (K) of the gamma-CD inclusion complex ({drug4g}) was calculated from the initial straight line portion of the phase solubility diagram by linear regression, according to the following equation [T. Higuchi et al., Adv. Anal. Chem. Instrum.

[3] = Biopharmaceutical classification system (BCS); assay type: physicochemical
Text: The compound of formula (IV), its manufacture, its pharmacological activity as inverse agonists of the GABA A a5 receptor, and its use for the treatment, prevention and/or delay of progression of various central nervous system (CNS) conditions have been described in WO 2009/071476. […] Res. (1995) 12:413-420]. […] If anhydrous solid forms of the compound of formula (IV), as described in WO 2009/071476, are selected for clinical development, a physical instability in terms of hydrate formation during pharmaceutical processing and/or storage of the drug product is possible. […] Further, the discovery of new solid forms of an API (polymorphs, solvates, salts, inclusion complexes) enlarges the repertoire of materials that a formulation scientist has available with which to design a pharmaceutical dosage form of a drug with a targeted release profile or other desired characteristics. Therefore, there is a need to find more solid forms of the compound of formula (IV). […] The instant invention provides novel solid forms of the compound of formula (IV) with improved solubility, dissolution rate, oral bioavailability as well as increased stability of the API. In addition, the instant invention provides novel inclusion complexes of compounds of formula (IV) with cyclodextrins. Such inclusion complexes further feature improved dissolution rate and bioavailability. […]

SMILES: Cc1onc(-c2ccc(F)cc2)c1COc1ccc(C(=O)N2CCS(=O)(=O)CC2)cn1 [Amorphous Form ({drug4f}), (1,1-dioxo-1lambda6-thiomorpholin-4-yl)-{6-[3-(4-fluoro-phenyl)-5-methyl-isoxazol-4-ylmethoxy]-pyridin-3-yl]-methanone]
hygroscopicity [1]: slightly hygroscopic (slightly hygroscopic: weight increase 0.2% < Am < 2.0%)
phase change upon storage at 100 rH at ambient temperature ([2]; Form C: prolonged period, e.g. 30 days): no phase transformation has been observed

SMILES: Cc1onc(-c2ccc(F)cc2)c1COc1ccc(C(=O)N2CCS(=O)(=O)CC2)cn1 [compound of formula (IV), (1,1-dioxo-1lambda6-thiomorpholin-4-yl)-{6-[3-(4-fluoro-phenyl)-5-methyl-isoxazol-4-ylmethoxy]-pyridin-3-yl]-methanone]
type of phase solubility diagram with gamma-cyclodextrin (physchem): Bs-type behavior
aqueous solubility [3]: low aqueous solubility
biopharmaceutical classification [3]: BCS 2

solubility (physchem; water): 150 mM (≈ 195 mg/mL)
SMILES: OC[C@H]1O[C@@H]2O[C@H]3[C@H](O)[C@@H](O)[C@@H](O[C@H]4[C@H](O)[C@@H](O)[C@@H](O[C@H]5[C@H](O)[C@@H](O)[C@@H](O[C@H]6[C@H](O)[C@@H](O)[C@@H](O[C@H]7[C@H](O)[C@@H](O)[C@@H](O[C@H]8[C@H](O)[C@@H](O)[C@@H](O[C@H]9[C@H](O)[C@@H](O)[C@@H](O[C@H]1[C@H](O)[C@H]2O)O[C@@H]9CO)O[C@@H]8CO)O[C@@H]7CO)O[C@@H]6CO)O[C@@H]5CO)O[C@@H]4CO)O[C@@H]3CO [gamma-cyclodextrin]

SMILES: Cc1onc(-c2ccc(F)cc2)c1COc1ccc(C(=O)N2CCS(=O)(=O)CC2)cn1.O [Form B ({drug4b}), (1,1-dioxo-1lambda6-thiomorpholin-4-yl)-{6-[3-(4-fluoro-phenyl)-5-methyl-isoxazol-4-ylmethoxy]-pyridin-3-yl]-methanone monohydrate]
hygroscopicity [1]: hygroscopic (hygroscopic: weight increase 2.0% < Am < 15.0%)
heating temperature at which the form transforms into Form A [2]: > 100 °C
stability as compared to Form A ([2]; in the presence of humidity, e.g. at ambient conditions): substantially increased

— patent EP2792360A1, “(1aR,12bS)-8-cyclohexyl-11-fluoro-N-((1-methylcyclopropyl)sulfonyl)-1a-((3-methyl-3,8-diazabicyclo[3.2.1]oct-8-yl)carbonyl)-1,1a,2,2b-tetrahydrocyclopropa[d]indolo[2,1-a][2]benzazepine-5-carboxamide for use in treating HCV” (IP Gesellschaft für Management mbH, priority 2013, dated 2014)
